Experimental data: patent US9828339B2, “Biphenyl derivatives and methods for preparing same” (DONG-A ST CO., LTD, priority 2013, dated 2017)

Columns and labels:
[1] = target: T1, human muscarinic M3 receptor (Homo sapiens (Human), UniProt P20309); assay: Binding assay on human muscarinic M3 receptor ([3H]-methyl scopolamine displacement); conditions: membranes overexpressing human M3 receptor, Ki from IC50 by Cheng-Prusoff, read-out: Binding Affinity to M3 Receptor, Ki
Outline: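 Displacement of [3H]-methyl scopolamine from membranes overexpressing human M3, in Tris-HCl, 25 °C, 120 min; filter-bound radioactivity counted. Nonspecific binding with 5 μM atropine; Ki from IC50 via Cheng-Prusoff.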

[2] = target: T1, human muscarinic M3 receptor; assay: Antagonism assay on human muscarinic M3 receptor (carbachol-induced intracellular calcium, FLIPR Calcium 5, transfected Cos-7 cells); format: cell-based; conditions: functional inhibitory constant; carbachol-induced intracellular calcium in Cos-7 cells transfected with human M3 receptor
Experimental: [Experimental Example 2] Antagonism Assay on Human Muscarinic M3 Receptor
The antagonism assay for various compounds of the present invention was conducted on antagonism to human M3 receptor in Cos-7 cells that was transfected with plasmid coding human muscarinic M3 receptor. Test compounds in various concentrations were pre-treated to the cells for 3 minutes, and then the changes of intracellular calcium were measured after treating the same with carbachol (i.e. muscarinic receptor agonist). The FLIPR® Calcium 5 assay (Molecular Devices) and Flex3 device (Molecular Devices) were used to measure concentration of calcium. Amounts of calcium before and after carbachol treatment were set as 0% and 100% respectively. Inhibition rates (%) by the compounds for increase in intracellular calcium by carbachol were calculated. The antagonistic potency of the test compounds on human muscarinic M3 receptor was calculated as the functional inhibitory constant (Ki), which can be calculated from concentration (IC50) of compound inhibiting 50% of activity of carbachol according to Cheng and Prusoff equation.

T1 sequence (P20309 whole entry): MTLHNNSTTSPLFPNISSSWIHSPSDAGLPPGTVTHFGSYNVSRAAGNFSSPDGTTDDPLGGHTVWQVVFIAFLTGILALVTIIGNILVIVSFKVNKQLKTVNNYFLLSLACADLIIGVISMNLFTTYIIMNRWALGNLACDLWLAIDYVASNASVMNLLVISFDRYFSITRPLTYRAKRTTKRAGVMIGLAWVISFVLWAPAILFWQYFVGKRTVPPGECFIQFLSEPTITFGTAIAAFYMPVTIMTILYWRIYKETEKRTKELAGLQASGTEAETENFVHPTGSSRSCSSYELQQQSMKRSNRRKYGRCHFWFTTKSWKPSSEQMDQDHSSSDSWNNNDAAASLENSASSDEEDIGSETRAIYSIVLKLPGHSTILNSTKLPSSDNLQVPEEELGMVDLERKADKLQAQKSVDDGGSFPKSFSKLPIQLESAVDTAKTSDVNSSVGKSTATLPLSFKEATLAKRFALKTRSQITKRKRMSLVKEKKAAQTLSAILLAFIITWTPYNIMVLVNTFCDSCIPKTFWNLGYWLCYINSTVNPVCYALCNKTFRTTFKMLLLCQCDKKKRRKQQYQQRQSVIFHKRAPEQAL

Row | Structure (SMILES) | Ki [1] | Ki [2]
1 | CN1CC[C@@H](COC(=O)Nc2ccccc2-c2ccc(F)c(F)c2)C1 [Example 115, (R)-(1-methylpyrrolidin-3-yl)methyl(3′,4′-difluoro-[1,1′-biphenyl]-2-yl)carbamate] | 7.49 nM | 0.32 nM
2 | CN1CC[C@H](COC(=O)Nc2ccccc2-c2cccc(F)c2)C1 [Example 116, (S)-(1-methylpyrrolidin-3-yl)-methyl (3′-fluoro-[1,1′-biphenyl]-2-yl)carbamate] | 12.6 nM | 1.21 nM
3 | CN1CC[C@H](COC(=O)Nc2ccccc2-c2cccc(Cl)c2)C1 [Example 118, (S)-(1-methylpyrrolidin-3-yl)methyl(3′-chloro-[1,1′-biphenyl]-2-yl)carbamate] | 2.42 nM | 0.77 nM
4 | CN1CC[C@H](COC(=O)Nc2ccccc2-c2cc(F)cc(Cl)c2)C1 [Example 120, (S)-(1-methylpyrrolidin-3-yl)methyl(3′-chloro-5′-fluoro-[1,1′-biphenyl]-2-yl)carbamate] | 9.7 nM | 1.03 nM
5 | CN1CC[C@H](COC(=O)Nc2ccc(F)cc2-c2cc(Cl)cc(Cl)c2)C1 [Example 126, (S)-(1-methylpyrrolidin-3-yl)methyl(3′,5′-dichloro-5-fluoro-[1,1′-biphenyl]-2-yl)carbamate] | 24.8 nM | 17.5 nM
6 | CN1CC[C@@H](COC(=O)Nc2ccccc2-c2ccc(Cl)c(Cl)c2)C1 [Example 130, (R)-(1-methylpyrrolidin-3-yl)-methyl (3′,4′-dichloro-[1,1′-biphenyl]-2-yl)carbamate] | 2.1 nM | 1.14 nM
7 | CN1CC[C@@H](COC(=O)Nc2ccccc2-c2cc(F)cc(Cl)c2)C1 [Example 132, (R)-(1-methylpyrrolidin-3-yl)methyl(3′-chloro-5′-fluoro-[1,1′-biphenyl]-2-yl)carbamate] | 4.64 nM | 0.75 nM
8 | CN1CC[C@@H](COC(=O)Nc2ccc(F)cc2-c2cc(Cl)cc(Cl)c2)C1 [Example 135, (R)-(1-methylpyrrolidin-3-yl)methyl(3′,5′-dichloro-5-fluoro-[1,1′-biphenyl]-2-yl)carbamate] | 24.1 nM | 16.5 nM
9 | CN1CC[C@@H](COC(=O)Nc2ccc(F)cc2-c2ccc(F)cc2)C1 [Example 141, (R)-(1-methylpyrrolidin-3-yl)methyl(4′,5-difluoro-[1,1′-biphenyl]-2-yl)carbamate] | 7.57 nM | 0.35 nM
10 | CN1CC[C@@H](COC(=O)Nc2ccc(F)cc2-c2ccccc2F)C1 [Example 144, (R)-(1-methylpyrrolidin-3-yl)methyl(2′,5-difluoro-[1,1′-biphenyl]-2-yl)carbamate] | 17.2 nM | 1.42 nM
11 | CN1CCC[C@H]1COC(=O)Nc1ccccc1-c1cc(F)cc(Cl)c1 [Example 148, (S)-(1-methylpyrrolidin-2-yl)methyl(3′-chloro-5′-fluoro-[1,1′-biphenyl]-2-yl)carbamate] | 10.2 nM | 2.22 nM
12 | CN1CCC[C@H]1COC(=O)Nc1ccccc1-c1ccc(F)c(Cl)c1 [Example 149, (S)-(1-methylpyrrolidin-2-yl)methyl(3′-chloro-4′-fluoro-[1,1′-biphenyl]-2-yl)carbamate] | 1.57 nM | 0.1 nM
13 | CC(C)N1CC[C@@H](COC(=O)Nc2ccccc2-c2ccc(F)c(Cl)c2)C1 [Example 151, (R)-(1-isopropylpyrrolidin-3-yl)-methyl (3′-chloro-4′-fluoro-[1,1′-biphenyl]-2-yl)carbamate] | 14.9 nM | 2.67 nM
14 | CN1CC[C@@H](COC(=O)Nc2ccccc2-c2ccccc2F)C1 [Example 156, (R)-(1-methylpyrrolidin-3-yl)methyl(2′-fluoro-[1,1′-biphenyl]-2-yl)carbamate] | 10.6 nM | 1.15 nM
15 | CN1CC[C@@H](COC(=O)Nc2ccccc2-c2ccc(F)cc2F)C1 [Example 157, (R)-(1-methylpyrrolidin-3-yl)methyl-(2′,4′-difluoro-[1,1′-biphenyl]-2-yl)carbamate] | 29.6 nM | 3.25 nM
